Reference: publication PMC12006171, “Marsupial cathelicidins: characterization, antimicrobial activity and evolution in this unique mammalian lineage” (Frontiers in Immunology, 2025)
Like-named read-outs stand apart in the source and are kept apart here. Where a SMILES comes first, the peptide text is derived from it.

How the values were obtained:
[1] = system: Escherichia coli ATCC 25922; experiment: microbe, parasite or virus in culture; type: cell-based
In short: (§1)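 CLSI broth microdilution, MHB ± cations ± 10% lysed horse blood; peptide 64-0.125μg/mL final, duplicates; 5 x 10^5 CFU/mL; 35°C, 20–24 h; MIC = no visible growth.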

[2] = system: Escherichia coli clinical isolate - animal; experiment: microbe, parasite or virus in culture; type: cell-based
In short: as §1

[3] = system: Pseudomonas aeruginosa ATCC 27853; experiment: microbe, parasite or virus in culture; type: cell-based; conditions: ATCC 27853; read-out: MIC P. aeruginosa ATCC
In short: as §1

[4] = system: Pseudomonas aeruginosa clinical isolate - animal; experiment: microbe, parasite or virus in culture; type: cell-based; conditions: clinical isolate - animal; read-out: MIC P. aeruginosa
In short: as §1

[5] = system: Staphylococcus aureus ATCC 29213; experiment: microbe, parasite or virus in culture; type: cell-based; conditions: ATCC 29213; read-out: MIC S. aureus ATCC
In short: as §1

[6] = system: Staphylococcus aureus clinical isolate - animal; experiment: microbe, parasite or virus in culture; type: cell-based; conditions: clinical isolate - animal; read-out: MIC S. aureus
In short: as §1

[7] = system: Streptococcus agalactiae ATCC 12386; experiment: microbe, parasite or virus in culture; type: cell-based; conditions: ATCC 12386; read-out: MIC S. agalactiae ATCC
In short: (§2)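 Broth microdilution per CLSI M07-A/M26A; peptides in DMSO, final 64-0.125 μg/mL, inoculum 5 x 10^5 CFU/mL. Bacteria in MHB ± 10% lysed horse blood ± Ca/Mg cations, yeasts in RPMI-1640 MOPS; 35°C for 20–24 h. MIC is lowest concentration without visible growth.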

[8] = system: Streptococcus agalactiae Clinical isolate - animal; experiment: microbe, parasite or virus in culture; type: cell-based; conditions: clinical isolate - animal; read-out: MIC S. agalactiae
In short: as §2

[9] = system: Streptococcus pneumoniae ATCC 49619; experiment: microbe, parasite or virus in culture; type: cell-based; conditions: ATCC 49619; read-out: MIC S. pneumoniae ATCC
In short: as §2

[10] = system: six bacteria (S. aureus, E. coli, P. aeruginosa; ATCC and clinical isolate); type: cell-based; conditions: synthesized mature peptide
In short: as §1

[11] = system: three fungi (Candida krusei, Candida parapsilosis, Candida albicans); experiment: Antifungal screening, summary over the panel of fungi (broth microdilution); type: cell-based; conditions: synthesized mature peptide
In short: as §2

[12] = system: panel of 11 bacteria and three fungi; experiment: Antimicrobial screening phases I and II, summary over all strains; type: cell-based; conditions: active = MIC ≤64µg/mL against the strains tested
Method: Antimicrobial testing of 78 cathelicidin MPs was performed in two phases as outlined in Figure 1 . In phase I, 40 peptides (27 extant and 13 ancestral) were selected for testing based on rank (outlined above) and similarity to published marsupial cathelicidins with known antimicrobial activity ([33], [41]–[43]). These peptides were tested against nine bacteria (Staphylococcus aureus ATCC 29213 and clinical isolate, Escherichia coli ATCC 25922 and clinical isolate, Pseudomonas aeruginosa ATCC 27853 and clinical isolate, Streptococcus agalactiae ATCC 12386 and clinical isolate, Streptococcus pneumoniae ATCC 49619) and three fungi (Candida krusei ATCC 6258, Candida parapsilosis ATCC 22019, and Candida albicans clinical isolate). Details regarding these strains are available in Supplementary Table 4 . The antimicrobial activity of cathelicidins was determined as the minimum inhibitory concentration (MIC), which was the lowest concentration of cathelicidin that prevented visible bacterial or fungal growth, relative to the negative control. […]
Antimicrobial activity was determined using a broth microdilution susceptibility assay in 96 well polypropylene plates according to Clinical Laboratory Standards Institute guidelines M07-A and M26A as described previously ([33], [42], [43]). […]

[13] = system: six bacteria (S. aureus, E. coli, P. aeruginosa; ATCC and clinical isolate); parameters: method as in 4 sources, ref Peel et al 2016 ||| ref Peel et al 2021 ||| ref Wang et al 2011 ||| ref Peel et al 2017; conditions: mature peptide; Y/N summary from earlier study; ref Peel et al 2021; cited from earlier work
[14] = system: three fungi (Candida krusei, Candida parapsilosis, Candida albicans); parameters: method as in 4 sources, ref Peel et al 2016 ||| ref Peel et al 2021 ||| ref Wang et al 2011 ||| ref Peel et al 2017; conditions: mature peptide; Y/N summary from earlier study; ref Peel et al 2021; cited from earlier work
Chlamydia = conditions: in vitro; cited from earlier work
Source text: Many marsupial and monotreme cathelicidins were closely related to the classic cathelicidins found in eutherians. These cathelicidins sit within clade II in the phylogenetic tree, sister to eutherians but were not orthologous ( Figure 3 ). Classic marsupial cathelicidins were encoded in cluster A in the genome of all marsupials and monotremes studied, syntenic to the single cathelicidin gene/cluster in eutherians ( Figure 2 ). Many of these were antimicrobial and bactericidal, with MICs equal to or less than eutherian peptides such as cow BMAP-27 and -28 ([87]) and human LL-37, including again ...

[15] = system: bacterial and fungal infections in chemotherapy patients; conditions: human, in vivo; cited from earlier work
[16] = in vivo; cited from earlier work

CC[C@H](C)[C@H](NC(=O)[C@H](CCCNC(=N)N)NC(=O)[C@H](CCCNC(=N)N)NC(=O)[C@@H]1CCCN1C(=O)[C@H](CC(N)=O)NC(=O)[C@H](CS)NC(=O)[C@H](CCCCN)NC(=O)[C@H](CCCNC(=N)N)NC(=O)[C@@H](NC(=O)[C@H](CC(C)C)NC(=O)[C@H](CC(C)C)NC(=O)[C@H](CS)NC(=O)[C@H](CCCNC(=N)N)NC(=O)[C@H](CCCCN)NC(=O)[C@H](CCCNC(=N)N)NC(=O)[C@H](CCCCN)NC(=O)[C@H](Cc1ccccc1)NC(=O)[C@H](CCCNC(=N)N)NC(=O)[C@H](CC(C)C)NC(=O)[C@@H]1CCCN1C(=O)[C@H](CCC(=O)O)NC(=O)[C@@H]1CCCN1)[C@@H](C)O)C(=O)N[C@H](C(=O)N[C@@H](Cc1ccccc1)C(=O)N[C@@H](CO)C(=O)N[C@@H](CC(C)C)C(=O)N[C@@H](CC(C)C)C(=O)N[C@@H](CCCCN)C(=O)NCC(=O)N[C@@H](CCCCN)C(=O)O)[C@@H](C)O [TrvuCath2] (H-PEPLRFKRKRCLLTRKCNPRRITFSLLKGK-OH; N-terminus and C-terminus assumed)
MBC E. coli ATCC ([1]; ATCC 25922): 17.5 (17.5)^17.5 µM
MIC E. coli ATCC ([1]; ATCC 25922): 17.5 (17.5)^17.5 µM
MIC in the presence of cations E. coli ATCC ([1]; ATCC 25922): 17.5 (17.5)^17.5 µM
MIC E. coli ATCC ([1]; MHB without cations, 5 x 10^5 CFU/mL, 35°C 20–24 hours, duplicate): 64 (64)^64 µg/mL
MIC in the presence of cations E. coli ATCC ([1]; superscript value, cation-adjusted Mueller Hinton broth): 64 (64)^64 µg/mL
MBC E. coli ATCC ([1]; value in brackets, 99.9% reduction in CFU/mL): 64 (64)^64 µg/mL
MBC E. coli ([2]; clinical isolate - animal): 17.5 (17.5)^17.5 µM
MIC E. coli ([2]; clinical isolate - animal): 17.5 (17.5)^17.5 µM
MIC in the presence of cations E. coli ([2]; clinical isolate - animal): 17.5 (17.5)^17.5 µM
MIC E. coli ([2]; clinical isolate, MHB without cations, 5 x 10^5 CFU/mL, 35°C 20–24 hours, duplicate): 64 (64)^64 µg/mL
MIC in the presence of cations E. coli ([2]; clinical isolate, superscript value, cation-adjusted Mueller Hinton broth): 64 (64)^64 µg/mL
MBC E. coli ([2]; clinical isolate, value in brackets, 99.9% reduction in CFU/mL): 64 (64)^64 µg/mL
MIC [3]: >17.5 µM
MIC [4]: >17.5 µM
MIC [5]: >17.5 µM
MIC [6]: >17.5 µM
MIC [7]: >17.5 µM
MIC [8]: >17.5 µM
MIC [9]: >17.5 µM
Antibacterial (MIC <64ug/mL) ([10]; broth microdilution screening, phase I or II, Y/N summary over the bacteria tested): Y (Antibacterial (MIC <64ug/mL))
Antifungal (MIC <64ug/mL) ([11]; broth microdilution screening, phase I, Y/N summary over the fungi tested): N (Antifungal (MIC <64ug/mL))
Antimicrobial activity in the assays [12]: displayed activity

KRGGIWKLIRPLGRGAGRILRHFHIDFCGNC [PhciCath5, koala cathelicidin, reference compound]
Antibacterial (MIC <64ug/mL) [13]: Y (Peel et al 2021) (Antibacterial (MIC <64ug/mL))
Antifungal (MIC <64ug/mL) [14]: Y (Peel et al 2021) (Antifungal (MIC <64ug/mL))
Killing of Chlamydia (Chlamydia): killed Chlamydia in vitro

RFKRSLSDGVIDTSSLPPRIRDIYLQAKYDIISRILRN [MAP1, marsupial ancestral peptide 1, predicted ancestral cathelicidin of the NGP clade]
Antibacterial (MIC <64ug/mL) ([10]; antimicrobial screening Phase I, Y/N summary over bacteria tested, broth microdilution): N (Antibacterial (MIC <64ug/mL))
Antifungal (MIC <64ug/mL) ([11]; antimicrobial screening Phase I, Y/N summary over fungi tested, broth microdilution): N (Antifungal (MIC <64ug/mL))
Antimicrobial activity in the assays [12]: none displayed antimicrobial activity

iseganan
Bacterial and fungal infections in oral mucositis patients [15]: significantly reducing bacterial and fungal infections
Clinical outcomes in ventilator-associated pneumonia [16]: no difference was observed between treated or placebo groups
